Where a SMILES comes first, the peptide text is derived from it. Where no end group is shown, it is not given here. [ ]: non-standard residue; d: D form.
Legend:
[1] = target: T1, FPRL1 (Homo sapiens, UniProt P25090); assay: Chemotaxis of FPRL1-expressing RBL-2H3 cells (modified Boyden chamber); format: cell-based; conditions: FPRL1-expressing RBL-2H3 cells; various concentrations
T1 construct: expressed in transfected cells; host or cells: RBL-2H3 (rat basophilic leukemia) cells, G418-selected
T1 sequence (P25090 1-351): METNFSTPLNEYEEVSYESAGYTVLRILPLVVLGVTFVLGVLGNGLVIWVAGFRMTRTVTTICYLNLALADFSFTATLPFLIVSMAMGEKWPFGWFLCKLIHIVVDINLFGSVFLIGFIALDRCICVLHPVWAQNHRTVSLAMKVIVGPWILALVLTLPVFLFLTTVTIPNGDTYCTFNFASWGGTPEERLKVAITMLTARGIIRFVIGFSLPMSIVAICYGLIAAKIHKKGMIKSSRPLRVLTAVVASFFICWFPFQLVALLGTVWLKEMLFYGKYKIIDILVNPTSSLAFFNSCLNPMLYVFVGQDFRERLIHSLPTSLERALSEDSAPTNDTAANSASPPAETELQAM
Description: Chemotaxis assays were performed using multiwell chambers (modified Boyden chamber assay) (Neuroprobe Inc., Gaithersburg, Md.) (18). Briefly, polycarbonate filters (8 μm pore size) were precoated with 50 μg/ml of rat type I collagen (Collaborative Biomedicals) in a HEPES-buffered RPMI 1640 medium. A dry coated filter was placed on a 96-well chamber containing different concentrations of peptides. RBL-2H3 cells expressing FPR or FPRL1 were suspended in RPMI at a concentration of 1×10^6 cells/ml of serum-free RPMI, and 25 μl of the suspension were placed onto the upper well of the 96-well chemotaxis chamber. After incubation for 4 hours at 37° C., non-migrated cells were removed by scraping them out, and cells that migrated across the filter were dehydrated, fixed, and stained with hematoxylin (Sigma, St. Louis, Mo.). The stained cells in five randomly chosen high power fields (HPF) (400×) in that well were then counted. […] The numbers of migrated cells were determined by counting them in a high power field (400×). The Data are presented as means ±SE of three independent experiments each performed in duplicate. The effect of the peptides of the present invention on cellular chemotaxis in FPR- or FPRL1-expressing RBL-2H3 cells was measured. Various concentrations of each peptide were used for the chemotaxis assay with FPR- or FPRL1-expressing RBL-2H3 cells. The numbers of migrated cells were determined by counting them in a high power field (400×). The Data are presented as means ±SE of two independent experiments each performed in duplicates.

[2] = target: T2, FPR (Homo sapiens, UniProt P21462); assay: ERK phosphorylation in FPR-expressing RBL-2H3 cells (immunoblot); format: cell-based; conditions: for ERKs phosphorylation/activation: 10 μM peptides 2 min (WKYMVm time course 1 μM)
T2 construct: expressed in transfected cells; host or cells: RBL-2H3 (rat basophilic leukemia) cells, G418-selected
T2 sequence (P21462 1-350): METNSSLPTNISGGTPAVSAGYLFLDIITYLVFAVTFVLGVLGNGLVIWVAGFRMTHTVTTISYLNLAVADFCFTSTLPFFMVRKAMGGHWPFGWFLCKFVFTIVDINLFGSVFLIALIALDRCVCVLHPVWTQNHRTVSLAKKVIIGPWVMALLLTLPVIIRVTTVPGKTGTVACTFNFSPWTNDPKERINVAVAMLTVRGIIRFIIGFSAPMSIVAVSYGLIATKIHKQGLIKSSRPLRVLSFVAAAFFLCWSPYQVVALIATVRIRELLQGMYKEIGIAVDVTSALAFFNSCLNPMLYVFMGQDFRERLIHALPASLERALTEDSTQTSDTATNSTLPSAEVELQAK
Description: Cultured RBL-2H3 cells were aliquoted into 2×10^6 cells and stimulated with the indicated concentrations of WKYMVm and the peptides of the present invention for the indicated lengths of time. FPR- or FPRL1-expressing RBL-2H3 cells were stimulated with 1 μM WKYMVm for various periods of time (FIG. 3A). Two cells were preincubated with a vehicle or 100 ng/ml of PTX (24 hr), 50 μM of LY294002 (15 min), 5 μM of GFX (15 min), 10 μM BAPTA/AM (60 min), or 50 μM PD98059 (60 min) prior to 1 μM of WKYMVm treatment (FIG. 3B). FPR- or FPRL1-expressing RBL2H3 cells were stimulated with 10 μM of the peptides of the present invention for 2 min or 5 min, respectively (FIG. 3C).
After stimulation, the cells were washed with serum-free RPMI and lysed in a lysis buffer (20 mM Hepes, pH 7.2, 10% glycerol, 150 mM NaCl, 1% Triton X-100, 50 mM NaF, 1 mM Na3VO4, 10 μg/ml leupeptin, 10 μg/ml aprotinin, and 1 mM phenylmethylsulfonyl fluoride). The detergent-insoluble materials were pelleted by centrifugation (12,000×g, 15 min, at 4° C.), and the soluble supernatant fraction was removed and stored at −80° C. or used immediately. Protein concentrations in the lysates were determined using the Bradford protein assay reagent.
Each sample ([…] of protein) was subjected to 10% SDS-PAGE and phosphorylated ERK was determined by an immunoblot analysis with an anti-phospho-ERK antibody. Protein samples were prepared for electrophoresis by addition of a concentrated sample buffer. The portions in the samples were then separated by an 10% SDS-polyacrylamide gel using the buffer system described by Laemmli (17).
Following the electrophoresis, a western blot analysis with an anti-ERK2 antibody was performed to confirm that the same amounts of samples were used for the experiments. The proteins were blotted onto nitrocellulose membranes. The nitrocellulose membranes were then blocked by incubation with TBS (Tris-buffered saline, 0.05% Tween-20) containing 5% non-fat dry milk. Subsequently, the membranes were incubated with anti-phospho-ERK antibody, anti-phospho-Akt antibody or anti-Akt antibody washed with TBS. For a PKC translocation assay, an antibody for PKC isozyme-specific was incubated. Antigen-antibody complexes were visualized after incubating the membrane with a 1:5000 diluted goat anti-rabbit IgG or goat anti-mouse IgG antibody coupled to horseradish peroxidase and using the enhanced chemiluminescence detection system.

Row | Compound | cellular chemotaxis [1] | ERKs phosphorylation/activation [2] | time of maximal ERKs activity after peptide treatment ([2]; 1 μM WKYMVm) [min]
1 | CSCC[C@H](NC(=O)CNC(=O)[C@H](CCCCN)NC(=O)[C@@H](N)Cc1c[nH]c2ccccc12)C(=O)N[C@H](C(=O)N[C@H](CCSC)C(N)=O)C(C)C [WKGMVm-NH2, Trp-Lys-Gly-Met-Val-D-Met-NH2] (H-WKGMV[dM]-NH2; N-terminus assumed) | induced cellular chemotaxis showing concentration-dependency | stimulated ERKs phosphorylation | –
2 | CSCC[C@H](NC(=O)[C@H](Cc1ccc(O)cc1)NC(=O)[C@H](CCCCN)NC(=O)[C@@H](N)Cc1c[nH]c2ccccc12)C(=O)N[C@H](C(=O)N[C@H](CCSC)C(N)=O)C(C)C [WKYMVm-NH2, Trp-Lys-Tyr-Met-Val-D-Met-NH2, reference compound] | induced cellular chemotaxis showing concentration-dependency | induced transient activation of ERKs | 2
3 | CSCC[C@H](NC(=O)[C@H](CCCNC(=N)N)NC(=O)[C@H](CCCCN)NC(=O)[C@@H](N)Cc1c[nH]c2ccccc12)C(=O)N[C@H](C(=O)N[C@H](CCSC)C(N)=O)C(C)C [WKRMVm-NH2, Trp-Lys-Arg-Met-Val-D-Met-NH2] (H-WKRMV[dM]-NH2; N-terminus assumed) | induced cellular chemotaxis showing concentration-dependency | stimulated ERKs phosphorylation | –
4 | WKYMVE-NH2 [WKYMVE-NH2, Trp-Lys-Tyr-Met-Val-Glu-NH2] | induced cellular chemotaxis showing concentration-dependency | stimulated ERKs phosphorylation | –
5 | WKYMVR-NH2 [WKYMVR-NH2, Trp-Lys-Tyr-Met-Val-Arg-NH2] | induced cellular chemotaxis showing concentration-dependency | stimulated ERKs phosphorylation | –

— patent US7517857B2, “Immune-modulating peptide” (POSCO, priority 2002, dated 2009)
